According to article PMC3573960 (Molecular Neurodegeneration, 2012):

How the values were obtained:
AD patients = test system: AD patients; design: method as in PMID 18695053, PMID 21222550, PMID 22323718; conditions: cited from earlier work
γ-secretase = assay: APP CTF accumulation in H4-APP751 cell lysates (Western blot); type: cell-based, human; conditions: H4-APP751 cells, 16 h
Description: Cells were lysed in situ and the resulting lysate cleared of nuclei by centrifugation, as described elsewhere. Samples were fractionated by SDS-PAGE on a 12% NuPage gel (Invitrogen), transferred to a nitrocellulose membrane, and immunoblotted with an anti-APP-CTF antibody (Sigma-Aldrich).

γ-secretase (EphA4) = assay: EphA4 CTF accumulation in rat primary neocortical cultures (Western blot); conditions: 24 h, as low as 100 nM
Procedure: Protein concentration of the lysate was determined by the BCA method, and 30 μg of total protein were loaded on a 10% Bis-Tris gel (Invitrogen). EphA4 CTF was visualized using an anti-EphA4-CTF antibody (Abnova, Walnut, CA) and an IRDye800CW® secondary antibody (Rockland Immunochemicals, Inc., Gilbertsville, PA). Detection was performed using an Odyssey scanner (LiCor Biosciences) and blots quantified using ImageJ software (available at http://rsbweb.nih.gov/ij).

[1] = test system: Aph1AL containing γ-secretase complexes; assay: Cell-free AICD production from APP β-CTF (Western blot); type: biochemical, murine; conditions: 10 μM
Procedure: DAPT was used as a reference positive control for the assay. For each assay condition, a 5-μL microsomal fraction, containing 1% CHAPSO (3-[(3-cholamidopropyl)dimethylammonio]-2-hydroxy-1-propanesulfonate) from murine embryonic fibroblasts (MEF) lacking the Aph-1A, Aph-1B, and Aph-1C genes (triple knock out) and rescued with Aph-1AL, was prepared in a reaction mixture of 5 μL substrate (recombinant APP β-CTF 3-Flag-tagged) at 0.8 μM, 0.0125% phosphatidylethanolamine, 0.1%, phosphatidylcholine, 0.05% sphingomyelin, and 8.9 μL PIPES (piperazine-N,N′-bis[−ethanesulfonic acid]) buffer. […] For detection of AICD, one-half of the reaction mixture was purified by a methanol-chloroform extraction in order to remove lipids and hydrophobic proteins (e.g., APP β-CTF). This purified fraction was further analyzed by SDS-PAGE and Western blotting. AICD was detected with an ANTI-FLAG® antibody (Sigma-Aldrich). The other half of the reaction mixture was used to analyze the levels of Aβ1-40 and Aβ1-42 by AlphaLisa (Perkin Elmer, Waltham, MA).

Tg2576 mice [2] = test system: Tg2576 mice; design: method as in PMID 16192379; conditions: 100 mg/kg p.o., 3 h before training; cited from earlier work
Aβ42 = test system: Aβ42; design: method as in PMID 15304503; conditions: cited from earlier work
Tg2576 mice [3] = test system: Tg2576 mice; design: method as in PMID 10908610, PMID 12930788; conditions: diet of 375 ppm for 4–6 months; cited from earlier work

CC(C)[C@H](O)C(=O)N[C@@H](C)C(=O)N[C@@H]1C(=O)N(C)CCc2ccccc21 [Semegacestat]
toxicities in clinical trials in AD (AD patients): drug-related rashes, lightening of hair color, skin cancer, and more importantly, worsening of cognition and the ability to perform activities of daily living

C[C@H](NC(=O)[C@@H](O)c1cc(F)cc(F)c1)C(=O)N[C@@H]1C(=O)N(C)c2ccccc2-c2ccccc21 [LY-411,575, reference compound]
Full length APP (γ-secretase; 1 nM to 10 μM): not altered | accumulation of APP α- or β-CTFs (γ-secretase; concentration as low as 1 nM): led to their accumulation | EphA4 CTF accumulation (γ-secretase (EphA4)): led to EphA4 CTF accumulation

C[C@H](NC(=O)Cc1cc(F)cc(F)c1)C(=O)N[C@H](C(=O)OC(C)(C)C)c1ccccc1 [DAPT, N-(N-(3,5-difluorophenacetyl)-L-alanyl)-S-phenylglycine t-butyl ester, reference compound]
production of AICD from APP β-CTF [1]: almost completely abolished | CFC cognitive deficit (Tg2576 mice [2]): rapidly improved the CFC cognitive deficit

C[C@@H](C(=O)O)c1ccc(-c2ccccc2)c(F)c1 [Flurizan™]
IC50 (Aβ42): > 300 µM

CC(C)Cc1ccc(C(C)C(=O)O)cc1 (centres unmarked) [ibuprofen]
amyloid plaque load and inflammatory mediators (Tg2576 mice [3]): marked decrease
